Experimental data taken from patent publication US11345711B2, “8,9-dihydroimidazo[1,2-a]pyrimido[5,4-e]pyrimidin-5(6H)-ones” (IMPACT THERAPEUTICS (SHANGHAI), INC, priority 2016, dated 2022).
Where two headings read alike, the source gives them in different places. One block for each compound: values may come before it.

What was measured:
LoVo cells = assay: MTT based cell viability assay on LoVo cells; conditions: Homo sapiens, LoVo, 72 h, 3 d, read-out: IC50, growth inhibition of LoVo cells
Method in brief: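 Inhibition of LoVo proliferation was derived as IC50 from a sigmoidal dose-response fit of cell survival. Readout was MTT (0.5 mg/mL, 4 h) with absorbance at 552/630/690 nm, after 3-day treatment at 37 °C. Eight-point series from 10 μM to 0.01 μM, DMSO control, 1% DMSO final.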

NCI-H1299 cells = assay: MTT based cell viability assay on NCI-H1299 cells; conditions: Homo sapiens, read-out: IC50, growth inhibition of NCI-H1299 cells
Method in brief: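 Viability read-out was MTT reduction (0.5 mg/mL, 4 h, absorbance 552/630/690 nm) after 3-day compound exposure at 37 °C of NCI-H1299 cells seeded at 1000 per well. Dilutions spanned 10 μM–0.01 μM in DMSO, final DMSO 1‰. Survival-versus-concentration curves were fitted sigmoidally to give IC50.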

Wee1 (h) = Wee1 (h) (Homo sapiens, UniProt P30291); assay: Wee1 kinase (h) detection method, [γ-33P]-ATP filter assay; format: biochemical
Chain of Wee1 (h) (P30291 whole entry): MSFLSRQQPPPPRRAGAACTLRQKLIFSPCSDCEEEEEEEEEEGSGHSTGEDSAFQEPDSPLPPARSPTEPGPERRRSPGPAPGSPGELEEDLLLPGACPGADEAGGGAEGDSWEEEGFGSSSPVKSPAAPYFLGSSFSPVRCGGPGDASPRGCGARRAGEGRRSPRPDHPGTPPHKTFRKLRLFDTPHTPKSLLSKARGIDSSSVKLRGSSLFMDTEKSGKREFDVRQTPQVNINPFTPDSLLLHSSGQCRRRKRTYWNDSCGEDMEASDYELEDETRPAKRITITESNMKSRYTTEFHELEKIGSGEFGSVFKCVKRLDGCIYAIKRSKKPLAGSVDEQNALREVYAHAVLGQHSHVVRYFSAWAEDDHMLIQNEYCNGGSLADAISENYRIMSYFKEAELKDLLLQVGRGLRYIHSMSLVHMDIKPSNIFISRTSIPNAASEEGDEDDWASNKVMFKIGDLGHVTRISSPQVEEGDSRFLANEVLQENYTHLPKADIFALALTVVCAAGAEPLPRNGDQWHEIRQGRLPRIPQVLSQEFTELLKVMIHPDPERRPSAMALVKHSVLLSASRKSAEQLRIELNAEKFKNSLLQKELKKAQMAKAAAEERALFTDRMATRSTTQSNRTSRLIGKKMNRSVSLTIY

SMILES: C[C@@H]1CN(c2ccc(Nc3ncc4c(n3)N3CCN=C3N(c3c(F)cccc3Cl)C4=O)cc2F)C[C@H](C)N1C [Example 45, 6-(2-Chloro-6-fluorophenyl)-2-((3-fluoro-4-((3S,5R)-3,4,5-trimethylpiperazin-1-yl)phenyl)amino)-8,9-dihydroimidazo[1,2-a]pyrimido[5,4-e]pyrimidin-5(6H)-one]
IC50 (LoVo cells): 1180 nM
IC50 (NCI-H1299 cells; NCI-H1299, NCI-H1299 cells): 616 nM
Inh. (%) of Wee1 kinase enzyme activity (Wee1 (h); C 0.01 μm compound): 28%
Inh. (%) of Wee1 kinase enzyme activity (Wee1 (h); C 0.1 μm compound): 80%
Inh. (%) of Wee1 kinase enzyme activity (Wee1 (h); C 1 μm compound): 95%

SMILES: CN1CCN(c2ccc(Nc3ncc4c(n3)N3CCN=C3N(c3c(F)cccc3Cl)C4=O)cc2C(F)(F)F)CC1 [Example 48, 6-(2-Chloro-6-fluorophenyl)-2-((4-(4-methylpiperazin-1-yl)-3-(trifluoromethyl)phenyl)amino)-8,9-dihydroimidazo[1,2-a]pyrimido[5,4-e]pyrimidin-5(6H)-one]
IC50 (LoVo cells): 117 nM
IC50 (NCI-H1299 cells; NCI-H1299, NCI-H1299 cells): 1120 nM
Inh. (%) of Wee1 kinase enzyme activity (Wee1 (h); C 0.01 μm compound): 29%
Inh. (%) of Wee1 kinase enzyme activity (Wee1 (h); C 0.1 μm compound): 75%
Inh. (%) of Wee1 kinase enzyme activity (Wee1 (h); C 1 μm compound): 91%

SMILES: C[C@@H]1CN(c2ccc(Nc3ncc4c(n3)N3CCN=C3N(c3c(F)cccc3Cl)C4=O)cc2C(F)(F)F)C[C@H](C)N1C [Example 49, 6-(2-Chloro-6-fluorophenyl)-2-((3-trifluoromethyl-4-((3S,5R)-3,4,5-trimethylpiperazin-1-yl)phenyl)amino)-8,9-dihydroimidazo[1,2-a]pyrimido[5,4-e]pyrimidin-5(6H)-one]
IC50 (LoVo cells): 96.9 nM
IC50 (NCI-H1299 cells; NCI-H1299 cells): 543 nM
Inh. (%) of Wee1 kinase enzyme activity (Wee1 (h); C 0.01 μm compound): 43%
Inh. (%) of Wee1 kinase enzyme activity (Wee1 (h); C 0.1 μm compound): 86%
Inh. (%) of Wee1 kinase enzyme activity (Wee1 (h); C 1 μm compound): 95%

SMILES: Cc1cc(Nc2ncc3c(n2)N2CCN=C2N(c2c(F)cccc2Cl)C3=O)ccc1N1C[C@@H](C)N(C)[C@@H](C)C1 [Example 51, 6-(2-Chloro-6-fluorophenyl)-2-((3-methyl-4-((3S,5R)-3,4,5-trimethylpiperazin-1-yl)phenyl)amino)-8,9-dihydroimidazo[1,2-a]pyrimido[5,4-e]pyrimidin-5(6H)-one]
IC50 (LoVo cells): 105 nM
IC50 (NCI-H1299 cells; NCI-H1299, NCI-H1299 cells): 165 nM
Inh. (%) of Wee1 kinase enzyme activity (Wee1 (h); C 0.01 μm compound): 66%
Inh. (%) of Wee1 kinase enzyme activity (Wee1 (h); C 0.1 μm compound): 86%
Inh. (%) of Wee1 kinase enzyme activity (Wee1 (h); C 1 μm compound): 96%

SMILES: Cc1cc(Nc2ncc3c(n2)N2CCN=C2N(c2c(F)cccc2Cl)C3=O)ccc1N1CCN(C(C)C)CC1 [Example 52, 6-(2-Chloro-6-fluorophenyl)-2-((4-(4-isopropylpiperazin-1-yl)-3-methylphenyl)amino)-8,9-dihydroimidazo[1,2-a]pyrimido[5,4-e]pyrimidin-5(6H)-one]
IC50 (LoVo cells): 87.4 nM
IC50 (NCI-H1299 cells; NCI-H1299, NCI-H1299 cells): 127 nM
Inh. (%) of Wee1 kinase enzyme activity (Wee1 (h); C 0.01 μm compound): 111%
Inh. (%) of Wee1 kinase enzyme activity (Wee1 (h); C 0.1 μm compound): 80%
Inh. (%) of Wee1 kinase enzyme activity (Wee1 (h); C 1 μm compound): 93%

SMILES: COc1cc(Nc2ncc3c(n2)N2CCN=C2N(c2c(F)cccc2Cl)C3=O)ccc1N1CCN(C)CC1 [Example 54, 6-(2-Chloro-6-fluorophenyl)-2-((3-methoxy-4-(4-methylpiperazin-1-yl)phenyl)amino)-8,9-dihydroimidazo[1,2-a]pyrimido[5,4-e]pyrimidin-5(6H)-one]
IC50 (LoVo cells): 155 nM
IC50 (NCI-H1299 cells; NCI-H1299 cells): 1530 nM
Inh. (%) of Wee1 kinase enzyme activity (Wee1 (h); C 1 μm compound): 81%

SMILES: CN1CCN(c2ccc(Nc3ncc4c(n3)N3CCN=C3N(c3c(F)cccc3Cl)C4=O)cc2[N+](=O)[O-])CC1 [Example 55, 6-(2-Chloro-6-fluorophenyl)-2-((4-(4-methylpiperazin-1-yl)-3-nitrophenyl)amino)-8,9-dihydroimidazo[1,2-a]pyrimido[5,4-e]pyrimidin-5(6H)-one]
IC50 (LoVo cells): > 100000 nM
IC50 (NCI-H1299 cells; NCI-H1299 cells): > 10000 nM
Inh. (%) of Wee1 kinase enzyme activity (Wee1 (h); C 1 μm compound): 12%

SMILES: CN1CCN(c2ccc(Nc3ncc4c(n3)N3CCN=C3N(c3c(F)cccc3Cl)C4=O)cn2)CC1 [Example 57, 6-(2-Chloro-6-fluorophenyl)-2-((6-(4-methylpiperazin-1-yl)pyridin-3-yl)amino)-8,9-dihydroimidazo[1,2-a]pyrimido[5,4-e]pyrimidin-5(6H)-one]
IC50 (LoVo cells): 13600 nM
IC50 (NCI-H1299 cells; NCI-H1299 cells): > 10000 nM
Inh. (%) of Wee1 kinase enzyme activity (Wee1 (h); C 0.01 μm compound): 36%
Inh. (%) of Wee1 kinase enzyme activity (Wee1 (h); C 0.1 μm compound): 80%
Inh. (%) of Wee1 kinase enzyme activity (Wee1 (h); C 1 μm compound): 89%

Now from value to compound:

IC50 (LoVo cells): 37.1 nM
IC50 (NCI-H1299 cells; NCI-H1299, NCI-H1299 cells): 597 nM
Inh. (%) of Wee1 kinase enzyme activity (Wee1 (h); C 0.01 μm compound): 23%
Inh. (%) of Wee1 kinase enzyme activity (Wee1 (h); C 0.1 μm compound): 75%
Inh. (%) of Wee1 kinase enzyme activity (Wee1 (h); C 1 μm compound): 93%
SMILES: CN1CCN(c2ccc(Nc3ncc4c(n3)N3CCN=C3N(c3c(F)cccc3Cl)C4=O)cc2F)CC1 [Example 44, 6-(2-Chloro-6-fluorophenyl)-2-((3-fluoro-4-(4-methylpiperazin-1-yl)phenyl)amino)-8,9-dihydroimidazo[1,2-a]pyrimido[5,4-e]pyrimidin-5(6H)-one]

IC50 (LoVo cells): 26.1 nM
IC50 (NCI-H1299 cells; NCI-H1299, NCI-H1299 cells): 528 nM
Inh. (%) of Wee1 kinase enzyme activity (Wee1 (h); C 0.01 μm compound): 36%
Inh. (%) of Wee1 kinase enzyme activity (Wee1 (h); C 0.1 μm compound): 85%
Inh. (%) of Wee1 kinase enzyme activity (Wee1 (h); C 1 μm compound): 97%
SMILES: CN1CCN(c2ccc(Nc3ncc4c(n3)N3CCN=C3N(c3c(F)cccc3Cl)C4=O)cc2Cl)CC1 [Example 46, 6-(2-Chloro-6-fluorophenyl)-2-((3-chloro-4-(4-methylpiperazin-1-yl)phenyl)amino)-8,9-dihydroimidazo[1,2-a]pyrimido[5,4-e]pyrimidin-5(6H)-one]

IC50 (LoVo cells): 30.5 nM
IC50 (NCI-H1299 cells; NCI-H1299 cells): 330 nM
Inh. (%) of Wee1 kinase enzyme activity (Wee1 (h); C 0.01 μm compound): 45%
Inh. (%) of Wee1 kinase enzyme activity (Wee1 (h); C 0.1 μm compound): 89%
Inh. (%) of Wee1 kinase enzyme activity (Wee1 (h); C 1 μm compound): 98%
SMILES: C[C@@H]1CN(c2ccc(Nc3ncc4c(n3)N3CCN=C3N(c3c(F)cccc3Cl)C4=O)cc2Cl)C[C@H](C)N1C [Example 47, 2-((3-Chloro-4-((3S,5R)-3,4,5-trimethylpiperazin-1-yl)phenyl)amino)-6-(2-chloro-6-fluorophenyl)-8,9-dihydroimidazo[1,2-a]pyrimido[5,4-e]pyrimidin-5(6H)-one]

IC50 (LoVo cells): 58.9 nM
IC50 (NCI-H1299 cells; NCI-H1299, NCI-H1299 cells): 229 nM
Inh. (%) of Wee1 kinase enzyme activity (Wee1 (h); C 0.01 μm compound): 62%
Inh. (%) of Wee1 kinase enzyme activity (Wee1 (h); C 0.1 μm compound): 95%
Inh. (%) of Wee1 kinase enzyme activity (Wee1 (h); C 1 μm compound): 100%
SMILES: Cc1cc(Nc2ncc3c(n2)N2CCN=C2N(c2c(F)cccc2Cl)C3=O)ccc1N1CCN(C)CC1 [Example 50, 6-(2-Chloro-6-fluorophenyl)-2-((3-methyl-4-(4-methylpiperazin-1-yl)phenyl)amino)-8,9-dihydroimidazo[1,2-a]pyrimido[5,4-e]pyrimidin-5(6H)-one]

IC50 (LoVo cells): 85.5 nM
IC50 (NCI-H1299 cells; NCI-H1299, NCI-H1299 cells): 145 nM
Inh. (%) of Wee1 kinase enzyme activity (Wee1 (h); C 0.01 μm compound): 13%
Inh. (%) of Wee1 kinase enzyme activity (Wee1 (h); C 0.1 μm compound): 82%
Inh. (%) of Wee1 kinase enzyme activity (Wee1 (h); C 1 μm compound): 91%
SMILES: Cc1cc(Nc2ncc3c(n2)N2CCN=C2N(c2c(F)cccc2Cl)C3=O)ccc1N1C[C@@H](C)N(C(C)C)[C@@H](C)C1 [Example 53, 6-(2-Chloro-6-fluorophenyl)-2-((4-((3S,5R)-4-isopropyl-3,5-dimethylpiperazin-1-yl)-3-methylphenyl)amino)-8,9-dihydroimidazo[1,2-a]pyrimido[5,4-e]pyrimidin-5(6H)-one]

IC50 (LoVo cells): 47 nM
IC50 (NCI-H1299 cells; NCI-H1299, NCI-H1299 cells): 318 nM
Inh. (%) of Wee1 kinase enzyme activity (Wee1 (h); C 0.01 μm compound): 14%
Inh. (%) of Wee1 kinase enzyme activity (Wee1 (h); C 0.1 μm compound): 80%
Inh. (%) of Wee1 kinase enzyme activity (Wee1 (h); C 1 μm compound): 90%
SMILES: Cc1cc(Nc2ncc3c(n2)N2CCN=C2N(c2c(F)cccc2Cl)C3=O)cc(C)c1N1CCN(C)CC1 [Example 56, 6-(2-Chloro-6-fluorophenyl)-2-((3,5-dimethyl-4-(4-methylpiperazin-1-yl)phenyl)amino)-8,9-dihydroimidazo[1,2-a]pyrimido[5,4-e]pyrimidin-5(6H)-one]
